In ChEMBL document CHEMBL1201862, “PubChem BioAssay data set” (2004):
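Dose response: 5 concentrations. Exposure: 48 h. Format: 96-well plates. Endpoint: linear interpolation; highest concentration if not reached. Abbreviation: GI50, concentration required for 50% inhibition of growth.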 The source made the active and inactive calls. No stated cut-off is given here; in the data, active = GI50 up to about 1.1 µM and inactive = higher.

What was measured:
Experiment in all cases: growth of human tumour cells (NCI), 48 h
HCT-116 = tested on: HCT-116
BT-549 = tested on: BT-549
SK-MEL-28 = tested on: SK-MEL-28
UACC-257 = tested on: UACC-257
SNB-75 = tested on: SNB-75
SW-620 = tested on: SW-620
OVCAR-3 = tested on: OVCAR-3
SK-MEL-5 = tested on: SK-MEL-5
HOP-92 = tested on: HOP-92
SK-OV-3 = tested on: SK-OV-3
NCI-H522 = tested on: NCI-H522
U-251 = tested on: U-251
TK-10 = tested on: TK-10
IGROV-1 = tested on: IGROV-1
MDA-N = tested on: MDA-N
DU-145 = tested on: DU-145
HCC 2998 = tested on: HCC 2998
SK-MEL-2 = tested on: SK-MEL-2
NCI-H23 = tested on: NCI-H23
SR = tested on: SR

SMILES	GI50 (HCT-116)	GI50 (BT-549)	GI50 (SK-MEL-28)	GI50 (UACC-257)	GI50 (SNB-75)	GI50 (SW-620)	GI50 (OVCAR-3)	GI50 (SK-MEL-5)	GI50 (HOP-92)	GI50 (SK-OV-3)	GI50 (NCI-H522)	GI50 (U-251)	GI50 (TK-10)	GI50 (IGROV-1)	GI50 (MDA-N)	GI50 (DU-145)	GI50 (HCC 2998)	GI50 (SK-MEL-2)	GI50 (NCI-H23)	GI50 (SR)
Fc1ccc(C(OCCN2CCC3CCC(C2)N3CCCc2ccccc2)c2ccc(F)cc2)cc1 (stereo not drawn)	2.65 µM (inactive)	8.89 µM (inactive)	2.52 µM (inactive)	2.92 µM (inactive)	2.4 µM (inactive)	3.64 µM (inactive)	3.55 µM (inactive)	1.76 µM (inactive)	5.45 µM (inactive)	10.4 µM (inactive)	3.35 µM (inactive)	4.33 µM (inactive)	4.43 µM (inactive)	4.97 µM (inactive)	3.27 µM (inactive)	8 µM (inactive)	2.08 µM (inactive)	3.48 µM (inactive)	4.1 µM (inactive)	
Cc1nn(-c2cc(Cl)ccc2[N+](=O)[O-])c(C)c1Cl	53.8 µM (inactive)	42.5 µM (inactive)	> 100 µM (inactive)	> 100 µM (inactive)	86.5 µM (inactive)	> 100 µM (inactive)	> 100 µM (inactive)	81.7 µM (inactive)		> 100 µM (inactive)	> 100 µM (inactive)	> 100 µM (inactive)	> 100 µM (inactive)	> 100 µM (inactive)	> 100 µM (inactive)	> 100 µM (inactive)	38.6 µM (inactive)	> 100 µM (inactive)	> 100 µM (inactive)	> 100 µM (inactive)
Clc1cc2ncn(C3CCCCO3)c2cc1Cl (stereo not drawn)	51.9 µM (inactive)	22.2 µM (inactive)	39.4 µM (inactive)		11.7 µM (inactive)	53.7 µM (inactive)	41 µM (inactive)	38.4 µM (inactive)		> 100 µM (inactive)	4.7 µM (inactive)	39.5 µM (inactive)		20.1 µM (inactive)	65.8 µM (inactive)	81.8 µM (inactive)	64.6 µM (inactive)	> 100 µM (inactive)	70.3 µM (inactive)	28.1 µM (inactive)
C(=N\c1ccc(-c2nc3ccccc3o2)cc1)/c1ccco1	59.6 µM (inactive)	77.4 µM (inactive)	> 100 µM (inactive)	48.3 µM (inactive)	49.1 µM (inactive)	> 100 µM (inactive)		30.8 µM (inactive)	30.8 µM (inactive)		44.2 µM (inactive)			49.4 µM (inactive)	64 µM (inactive)	75 µM (inactive)		87.1 µM (inactive)	78.2 µM (inactive)	65.9 µM (inactive)
CC1=C(C)C(=O)C(C2=CC(=O)c3ccccc3C2=O)=C(C2=CC(=O)c3ccccc3C2=O)C1=O	3.6 µM (inactive)	18.7 µM (inactive)	7.62 µM (inactive)	8.2 µM (inactive)	13.2 µM (inactive)	2.79 µM (inactive)		1.4 µM (inactive)		20.2 µM (inactive)	2.85 µM (inactive)	6.43 µM (inactive)	3.38 µM (inactive)	7.31 µM (inactive)	0.82 µM (active)	3.21 µM (inactive)	6.95 µM (inactive)	5.9 µM (inactive)	8.13 µM (inactive)	
O=c1[nH]nc(Cc2ccccc2)n1CCO	> 100 µM (inactive)	> 100 µM (inactive)	> 100 µM (inactive)	> 100 µM (inactive)		> 100 µM (inactive)	> 100 µM (inactive)	> 100 µM (inactive)	> 100 µM (inactive)	> 100 µM (inactive)	> 100 µM (inactive)	> 100 µM (inactive)	> 100 µM (inactive)	> 100 µM (inactive)	> 100 µM (inactive)	> 100 µM (inactive)	> 100 µM (inactive)	> 100 µM (inactive)	> 100 µM (inactive)	
CC(C#N)NCc1ccc(C(C)NC(C)C#N)cc1 (stereo not drawn)	> 100 µM (inactive)	> 100 µM (inactive)	> 100 µM (inactive)	> 100 µM (inactive)		> 100 µM (inactive)	> 100 µM (inactive)	> 100 µM (inactive)	> 100 µM (inactive)	> 100 µM (inactive)	> 100 µM (inactive)	> 100 µM (inactive)	> 100 µM (inactive)	> 100 µM (inactive)	> 100 µM (inactive)	> 100 µM (inactive)	> 100 µM (inactive)	> 100 µM (inactive)	> 100 µM (inactive)	
CC(C)/C(Cl)=N\OC(=O)Nc1ccc(F)cc1	6.61 µM (inactive)	11.2 µM (inactive)	5.81 µM (inactive)	14.3 µM (inactive)		1.69 µM (inactive)	8.22 µM (inactive)	13.6 µM (inactive)		17.8 µM (inactive)	1.52 µM (inactive)	15.6 µM (inactive)	4.8 µM (inactive)	14.8 µM (inactive)	8.26 µM (inactive)	16.3 µM (inactive)	15.7 µM (inactive)	17.7 µM (inactive)	18.2 µM (inactive)	1.68 µM (inactive)
CC(C)Nc1n[nH]c(=O)n1C(C)C	> 100 µM (inactive)	> 100 µM (inactive)	> 100 µM (inactive)	> 100 µM (inactive)	99.3 µM (inactive)	> 100 µM (inactive)	> 100 µM (inactive)	> 100 µM (inactive)	> 100 µM (inactive)	> 100 µM (inactive)		> 100 µM (inactive)	> 100 µM (inactive)	> 100 µM (inactive)	> 100 µM (inactive)	> 100 µM (inactive)		> 100 µM (inactive)	> 100 µM (inactive)	> 100 µM (inactive)
S=C(NN=C1NCCCCN1)Nc1ccccc1	24.5 µM (inactive)	64.9 µM (inactive)	35.5 µM (inactive)	36 µM (inactive)	80.9 µM (inactive)		40.4 µM (inactive)	48.8 µM (inactive)		79.8 µM (inactive)	21.2 µM (inactive)	36.3 µM (inactive)		43.4 µM (inactive)	98.4 µM (inactive)	> 100 µM (inactive)	> 100 µM (inactive)		> 100 µM (inactive)	13.1 µM (inactive)
C/C(=C/CC[C@]1(CO)CC[C@]2(C)[C@H](CC[C@@H]3[C@@]4(C)CC[C@H](OC5OC(CO)C(O)C(O)C5OC5OC(CO)C(O)C(O)C5O)C(C)(C)[C@@H]4CC[C@]32C)[C@H]1O)CO (stereo partly drawn)	> 100 µM (inactive)	> 100 µM (inactive)	> 100 µM (inactive)	> 100 µM (inactive)	> 100 µM (inactive)	> 100 µM (inactive)	> 100 µM (inactive)	> 100 µM (inactive)	> 100 µM (inactive)	> 100 µM (inactive)	> 100 µM (inactive)	> 100 µM (inactive)	> 100 µM (inactive)	> 100 µM (inactive)	> 100 µM (inactive)	> 100 µM (inactive)			> 100 µM (inactive)	> 100 µM (inactive)
COc1cc(C(=O)CBr)c(OC)cc1C	> 100 µM (inactive)	36.2 µM (inactive)	> 100 µM (inactive)	> 100 µM (inactive)	> 10 µM (inactive)	> 100 µM (inactive)		52.7 µM (inactive)		> 100 µM (inactive)	> 100 µM (inactive)	> 100 µM (inactive)	> 100 µM (inactive)	> 100 µM (inactive)	> 100 µM (inactive)	> 100 µM (inactive)		> 100 µM (inactive)	> 100 µM (inactive)	> 100 µM (inactive)
COc1ccc(-n2c(C)nc3ccc(/N=C/c4ccccc4)cc3c2=O)cc1	> 100 µM (inactive)	> 100 µM (inactive)	> 100 µM (inactive)	> 100 µM (inactive)	> 100 µM (inactive)	> 100 µM (inactive)	> 100 µM (inactive)	> 100 µM (inactive)			> 100 µM (inactive)	> 100 µM (inactive)	> 100 µM (inactive)	> 100 µM (inactive)	> 100 µM (inactive)	> 100 µM (inactive)	> 100 µM (inactive)		> 100 µM (inactive)	> 100 µM (inactive)
Oc1ccccc1/C=N/c1ccc(Oc2ccc(Cl)cc2)c(Cl)c1	16.7 µM (inactive)	15.8 µM (inactive)	25 µM (inactive)	28.6 µM (inactive)	21.1 µM (inactive)	28.9 µM (inactive)	15 µM (inactive)	20.8 µM (inactive)	20 µM (inactive)	29.8 µM (inactive)	14.4 µM (inactive)	21.2 µM (inactive)	39.5 µM (inactive)	22.7 µM (inactive)		81.8 µM (inactive)	18.5 µM (inactive)	13.6 µM (inactive)	18.6 µM (inactive)	38.2 µM (inactive)
COc1ccc(NC(=S)Nc2c(C)n(C)n(-c3ccccc3)c2=O)cc1	> 100 µM (inactive)	> 100 µM (inactive)	> 100 µM (inactive)	> 100 µM (inactive)	> 100 µM (inactive)	> 100 µM (inactive)	> 100 µM (inactive)	> 100 µM (inactive)	> 100 µM (inactive)	> 100 µM (inactive)	> 100 µM (inactive)	> 100 µM (inactive)	> 100 µM (inactive)	> 100 µM (inactive)	> 100 µM (inactive)	> 100 µM (inactive)	> 100 µM (inactive)		> 100 µM (inactive)	
S=c1c2cc(I)ccc2nc(S)n1Cc1ccccc1	3.38 µM (inactive)	4.42 µM (inactive)	3.79 µM (inactive)	2.44 µM (inactive)	2.69 µM (inactive)	3.72 µM (inactive)	2.9 µM (inactive)	3.17 µM (inactive)	2.69 µM (inactive)	4.1 µM (inactive)	4.38 µM (inactive)	3.46 µM (inactive)	4.55 µM (inactive)	4.05 µM (inactive)	3.83 µM (inactive)	2.71 µM (inactive)		3.14 µM (inactive)	2.91 µM (inactive)	3.64 µM (inactive)
